“Also recorded” adds a separate entry of the source. Read-outs that look alike come from different tables or passages of the source.
Key:
[1] = system: P. aeruginosa PAO1 gen-gfp; experiment: constitutive GFP production (general protein synthesis); assay type: cell-based, Pseudomonas aeruginosa; conditions: 24 h; dose-response
Protocol: Compounds 7 and 21 were tested for their effect on general protein synthesis in P. aeruginosa. In these assays a P. aeruginosa strain that constitutively produced GFP was employed. […] [59]
The constitutively-expressing genomic (gen)-GFP strain, PAO1 gen-gfp, was prepared using the mini-Tn7 transposon system reported by Lambertsen et al. and Koch et al. to introduce the Tn7 element miniTn7-gfp2 into the neutral chromosomal site attTn7 in the PAO1 genome. The Tn7 element miniTn7-gfp2 was chosen for these studies because it encodes for the same GFP variant, GFPmut3b, used in our QS reporters, discussed herein below. However, rather than being an unstable GFP under the control of the laslI or rhII QS-dependent promoter as in the QS reporters, GFP is stable and under the control of the constitutive E. coli lac-promoter derivative PA1/04/03. The use of this strain allows a comparison of QS-dependent and non-QS-dependent gene expression in the presence of 7 and 21.
Compounds 7 and 21 were evaluated for their ability to affect constitutive GFP production in the P. aeruginosa PAO1 gen-gfp strain using the static biofilm assay conditions described above. […] Measurements of FL500/540 and OD600 were made at 24 h, after which the samples were evaluated for biofilm formation using the CV procedure. […]

[2] = system: P. aeruginosa PAO1 biofilm; experiment: crystal violet static biofilm inhibition assay; assay type: cell-based, Pseudomonas aeruginosa; conditions: for IC50: Pseudomonas aeruginosa, PAO1
Protocol: Stilbenes 1, 2, and 4a-b were tested for inhibition of biofilm formation in a wild-type P. aeruginosa strain (PAO1) at 500 μM using standard static biofilm growth assays.
Biofilms were grown in a modified M9 minimal media in 96-well microtiter plates, and crystal violet staining of the surface-associated biomass was used to quantify biofilm growth at 12 and 24 h (see The Examples).
A modified version of the widely used crystal violet (CV) microtiter plate biofilm assay, first described by Christensen et al. and later popularized by O'Toole et al., [57] was used in this study and is described in detail below.
Compounds to be evaluated for biofilm modulatory activity were added to the assay microtiter plates by means of a “solvent evaporation” delivery. This delivery method involves preparation of compound stock solutions, addition of stocks to microtiter plates at appropriate volumes to obtain target molar quantities per well, evaporation of the solvent, and re-solubilization of the compound in the final assay medium upon inoculum addition. This delivery method was adopted to avoid the biofilm inhibitory effects observed with an “organic solvent-to-solution” delivery method (e.g., DMSO-to-media; data not shown), which is more commonly done in small molecule screens. EtOH was chosen as the solvent for solvent evaporation delivery in this study based on the chemical resistance limitations of polystyrene microtiter plates. Prior to each experiment, EtOH stock solutions of compounds being evaluated were prepared, diluted, and added to microtiter plates at varied volumes to obtain a target final concentration per well upon inoculum addition. Plates were incubated at 37° C. to evaporate EtOH and sterilized in a Baker SterilGARD III Advance Biological Safety Cabinet by UV-C germicidal irradiation for 30 min (lids removed). EtOH only was added to wells designated as “no compound” positive controls (Pos. Con.) and “no bacteria” negative controls (note, controls lacking bacteria yielded no significant staining in the CV assay (data not shown)). The outer wells were never used for test samples as evaporation and significant deviations in growth were observed; thus, outer wells were filled with sterile 18 MΩ H2O to minimize these effects.
Bacterial samples for biofilm assessment were prepared by first streaking a freezer stock of P. aeruginosa PAO1 on an LB/agar plate and incubating at 37° C. for ˜16 h. Single colonies were selected and used to inoculate LB medium (10 mL) in a 25 mL Erlenmeyer flask. The culture was grown on an incubator-shaker (200 rpm) at 37° C. for ˜16 h to an OD600 of ˜1.0. Overnight cultures were gently decanted into falcon tubes to minimize transfer of biofilm produced during overnight growth. An inoculating culture was prepared by centrifuging an aliquot of overnight culture at 3,000 rpm for 10 min, removal of the supernatant, and then re-suspending the pellet in 95:5 M9+:LB at 10-fold the initial volume (effecting a 1-in-10 dilution; OD600 ˜0.1-0.2). Using a multi-channel pipette, this culture was added to test microtiter plates in 200 μL aliquots. The well contents were mixed using a 10 μL multi-channel pipette in a swirling motion; insoluble compound samples were noted and later excluded from the data set as needed.
Plates were covered with the provided lid and incubated statically at 37° C. for 12-24 h. Maximal biofilm formation is obtained at 24 h, after which the amount of biofilm declines unless fresh nutrients are provided. After incubation, the OD600 was measured, and the bacterial suspension was removed by inverting and shaking the plate over a waste pan and then taping on a paper towel (process termed “dumping”). Non-biofilm associated biomaterial was removed by adding 225 μL PBS and dumping (process termed “washing”) and then repeating this washing process. Biofilm was fixed to the microtiter plates by uncovering the plate and thermally dehydrating at 37° C. […]

[3] = 12 h incubation, CV assay, read-out: 12 h biofilm IC50
[4] = 24 h incubation, CV assay, read-out: 24 h biofilm IC50
[5] = added exogenously to solution, read-out: IC50 for biofilm inhibition
[6] = 24 h, read-out: IC50 for biofilm inhibition
[7] = Table 1, crystal violet, read-out: IC50, P. aeruginosa PAO1 biofilm inhibition

SMILES | effect on constitutive GFP production / protein synthesis [1] | inhibition of biofilm formation ([2]; 24 h) | IC50 [2, 3] | IC50 [2, 4] | IC50 [2, 5] | IC50 [2, 6] | IC50 [2, 7] | concentrations at which inhibitor (not activator) of biofilm formation ([2]; P. aeruginosa) | fold more active than parent compound 7 ([2]; biofilm inhibition IC50)
Nc1nc2ccccc2[nH]1 [Compound 7, 2-aminobenzimidazole] | only inhibit the production of GFP at concentrations where bacterial growth is also inhibited; also recorded: do not simply globally affect protein synthesis | 94% | 50.5 µM | 46.8 µM | 47 µM | 47 µM | 47 µM |  | 
Cc1cc2nc(N)[nH]c2cc1C [Compound 21, 5,6-Dimethyl-2-aminobenzimidazole] | only inhibit the production of GFP at concentrations where bacterial growth is also inhibited; also recorded: do not simply globally affect protein synthesis |  | 4.3 µM | 4 µM | 4 µM | 4 µM | 4 µM | ≤ 3.2 mM | ~10 fold
